For data set [1] the following is noted: cited from earlier work.
The conditions of data set [2]: Table 8, cited from earlier work; for pKa: first value where several are printed.
Data set [3] in a line: Pharmacokinetics of tacrolimus encapsulated in E100, sublingual cross-over, rats (2022NCM003). It is filed as in vivo, Sprague Dawley rats. Conditions: 5 mg per kg. As for the experimental part: The pharmacokinetic profile of three different nanoparticular formulations of Tacrolimus after sublingual administration in five naïve male Sprague Dawley rats with 14 days wash-out interval was evaluated. To eliminate the inter-individual variability, the same animals were administered in an intra-individual three-way cross-over after washout period. The animals were housed in a separate temperature-controlled room (20-24° C.) and maintained in a 12 h light/12 h dark cycle. Food and water were available ad libitum throughout the duration of the study.
Formulations were freshly prepared on the day of application using the procedure described herein and administered freshly after arrival.
Dose (and applied volume of the nanosuspension) was adjusted individually to the body weight of the animal.
Test item formulations were administered sublingual to 5 animals with […] wash-out intervals at a dose of 5 mg per kg body weight. Application procedure and blood sampling was as described before.
Tacrolimus whole blood concentrations were analysed by LC-MS/MS and Cmax, tmax, and AUC were calculated.
Preparation of working solutions for calibration standards and quality controls Individual stock solutions were used for preparation of calibration standards and quality control samples (QCs).
All samples were kept on ice until the addition of the precipitation reagent. […]

Data set [4] can be described thus: Saturation solubility of sirolimus in selected solvents. The class given is physicochemical. The note with it: thermodynamic from solid, room temperature, HPLC of supernatant. The method, then: One task is the production of a highly concentrated dispersion. The prerequisite for this is the use of a solvent for the production of the dispersion in which the active substance has a high solubility. […] Crystalline active ingredient was added to a defined amount of solvent at room temperature while stirring until an insoluble sediment was formed.

A short description of data set [5]: Pharmacokinetics of sirolimus encapsulated in E100, sublingual, rats (2022NCM001). The note with it: 5 mg per kg. The class given is in vivo, Sprague Dawley rats. As for the experimental part: Naïve, adult male Sprague Dawley rats of around 300 g body weight were housed in a separate temperature-controlled room (20-24° C.) and maintained in a 12 h light/12 h dark cycle. Food and water were available ad libitum throughout the duration of the study.
Formulation was freshly prepared on the day of application. It was administered sublingually to each animal at a dose of 5 mg per kg body weight.
For sublingual administration, rats were shortly anaesthetized with isoflurane. Prior to application, the sublingual area was blotted dry with cotton swabs. The appropriate volume of the formulation was applied under the tongue with a pipette. The animals were kept in a sitting position for 5 minutes. After 5 minutes the area under the tongue was blotted dry again to avoid oral administration of the remaining suspension. Then the animals were placed into the cage until recovery.
Blood samples were collected by puncture of the lateral tail vein at the following time points: predose, 15 min, 30 min, 1 h, 2 h, 4 h, 8 h and 24 h post dose. At each of the designated time points 20 μl blood was collected from the tail vein into K3-EDTA capillaries (Minivette POCT, […]). The blood samples were transferred into polypropylene tubes and frozen on dry ice within 1-2 min. of sampling and stored at −20° C. until LC-MS analysis. […]

Data set [6] is described as follows: Pharmacokinetics of two sirolimus E100 nanoformulations, sublingual cross-over, rats (2022NCM002). The note with it: two nanoparticular formulations (FLM04_025, FLM02_b230). It is filed as in vivo. The method, then:
To eliminate the inter-individual variability, the same animals were administered in an intra-individual two-way cross-over after an appropriate washout period.
Two different approaches were followed in that a surfactant was included either during precipitation (FLM04_025) or after precipitation (FLM02_b230) as shown in FIG. 32.
Formulations were freshly prepared on the day of application using the procedure as described herein.
Test item formulations were administered sublingual to animals with 7 days wash-out intervals at a […] per kg body weight. Application procedure, blood sampling and their as quantification was as described before.

Where [7] appears, read: nanoparticular dispersion based on Eudragit E100, rats.

≈ marks a conversion by molar mass, not a printed value. Where two headings read alike, the source gives them in different places.

For `CCC(C)n1ncn(-c2ccc(N3CCN(c4ccc(OCC5COC(Cn6cncn6)(c6ccc(Cl)cc6Cl)O5)cc4)CC3)cc2)c1=O` (stereo not drawn) [Itraconazole], in data set [1], the lipophilicity (Log P) was 5.66 and the Water solubility was 0.0096 mg/mL.

`O=C(O)CC(O)C(=O)O` (stereo not drawn) [Malic acid]: in data set [2], the Water solubility was 218 mg/mL and the pKa is on record as 3.2.

Turning to `CCCCCCCC(=O)O` [Octanoic Acid], in data set [2], the pKa is recorded as 5.19.

Consider `CCCCCCCC/C=C\CCCCCCCC(=O)O` [Oleic Acid], for which, in data set [2], the Water solubility was 0.0001 mg/mL.

Turning to `CCCCCCCCCCCCCCCCCC(=O)O` [Stearic Acid], in data set [2], the pKa is 4.95.

On to `C=CC[C@@H]1/C=C(\C)C[C@H](C)C[C@H](OC)[C@H]2O[C@@](O)(C(=O)C(=O)N3CCCC[C@H]3C(=O)O[C@H](/C(C)=C/[C@@H]3CC[C@@H](O)[C@H](OC)C3)[C@H](C)[C@@H](O)CC1=O)[C@H](C)C[C@@H]2OC` [Tacrolimus], for which the log partition coefficient (Log P) in data set [1] is 4.5. Besides, the “detection in blood after sublingual administration” value in data set [3] (setting [7]) was “detected in the blood of all rats”. Besides, the “time of maximum concentration (t_max)” value in data set [3] (nanoparticular dispersion based on Eudragit E100, whole blood, rats) was determined as 30 min.

As to `CCCCC(=O)O` [Valeric acid], in data set [2], the Water solubility is 40 mg/mL and the pKa is reported as 5.01.

For `CO[C@H]1C[C@@H]2CC[C@@H](C)[C@@](O)(O2)C(=O)C(=O)N2CCCC[C@H]2C(=O)O[C@H]([C@H](C)C[C@@H]2CC[C@@H](O)[C@H](OC)C2)CC(=O)[C@H](C)/C=C(\C)[C@@H](O)[C@@H](OC)C(=O)[C@H](C)C[C@H](C)/C=C/C=C/C=C/1C` [sirolimus], the solubility in data set [4] (acetone, organic solvent or mixture, saturation solubility in Acetone (polar aprotic)) was at least 200 mg/mL; in data set [4] (ethanol, organic solvent or mixture, saturation solubility in Ethanol (polar protic)) it was 179 mg/mL (≈ 196 mM); in data set [4] (iso-propanol, organic solvent or mixture, saturation solubility in iso-Propanol (polar protic)), 25 mg/mL (≈ 27.3 mM); in data set [4] (methanol, organic solvent or mixture, saturation solubility in Methanol (polar protic)), 246 mg/mL (≈ 269 mM); in data set [4] (water, saturation solubility in Water (polar protic)), around 0.001 mg/mL (≈ 0.00109 mM). For the same compound, the “time of maximum concentration (t_max)” value in data set [5] (5 min application, nanoparticular dispersion based on Eudragit E100, blood, rats) was 30 min. Also, the “detection in blood after sublingual administration” value in data set [5] (setting [7]) and in data set [6] was “detected in the blood of all rats” throughout. In data set [1], the “Log P” value was 4.56.

The record behind these values is patent publication US20260232603A1, “A METHOD OF PREPARING AN AQUEOUS DISPERSION OF NANOPARTICLES” (IQ MEDICAL GMBH, priority 2023, published 2026).
